Experiments:
[1] = biological target: T1, human B1R receptor (hB1R) (Homo sapiens, UniProt P46663); assay: FLIPR Ca2+ assay (Fluo-4) on CHO K1 cells stably transfected with the human B1R gene; type: cell-based; conditions: CHO-K1; test substance 10 μM; agonist Lys-Des-Arg9-bradykinin 0.5 nM; % inhibition compared to the maximum achievable inhibition
T1 construct: host or cells: CHO K1 cells
T1 sequence (P46663 1-353): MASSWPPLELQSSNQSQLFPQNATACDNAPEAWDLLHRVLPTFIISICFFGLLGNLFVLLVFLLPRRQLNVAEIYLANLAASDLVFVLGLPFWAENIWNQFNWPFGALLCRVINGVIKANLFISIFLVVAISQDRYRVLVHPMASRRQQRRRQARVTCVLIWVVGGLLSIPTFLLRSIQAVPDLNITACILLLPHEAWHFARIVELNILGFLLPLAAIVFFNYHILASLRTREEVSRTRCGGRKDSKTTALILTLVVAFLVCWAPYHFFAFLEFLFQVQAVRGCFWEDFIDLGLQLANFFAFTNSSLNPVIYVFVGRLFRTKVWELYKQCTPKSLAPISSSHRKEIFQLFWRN
Procedure, shortened: (§1)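 CHO K1 cells stably expressing human or rat B1R, Fluo-4 loaded, read by FLIPR (Ex 488/Em 540, peak fluorescence). Compound at 10 μM gives % activation vs agonist. After 10 min, agonist added (human: Lys-Des-Arg9-bradykinin 0.5 nM; rat: Des-Arg9-bradykinin 100 nM); % inhibition relative to maximal achievable inhibition.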

[2] = biological target: T2, B1R receptor of rats (rB1R) (Rattus norvegicus, UniProt P97583); assay: FLIPR Ca2+ assay (Fluo-4) on CHO K1 cells stably transfected with the B1R gene of rats; type: cell-based; conditions: CHO-K1; test substance 10 μM; agonist Des-Arg9-bradykinin 100 nM; % inhibition compared to the maximum achievable inhibition
T2 construct: host or cells: CHO K1 cells
T2 sequence (P97583 1-337): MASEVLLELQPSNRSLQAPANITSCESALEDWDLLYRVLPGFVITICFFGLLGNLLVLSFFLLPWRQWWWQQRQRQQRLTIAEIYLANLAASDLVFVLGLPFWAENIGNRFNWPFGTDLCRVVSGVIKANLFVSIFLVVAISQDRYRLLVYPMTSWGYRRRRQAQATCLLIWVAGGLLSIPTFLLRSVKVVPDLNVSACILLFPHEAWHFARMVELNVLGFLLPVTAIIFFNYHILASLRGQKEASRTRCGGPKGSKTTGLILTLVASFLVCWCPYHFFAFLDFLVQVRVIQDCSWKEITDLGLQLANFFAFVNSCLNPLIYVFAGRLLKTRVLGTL
Procedure, shortened: as §1

| SMILES | inhibition at 10 µM [1] | inhibition at 10 µM [2] |
| --- | --- | --- |
| Cc1cc(C)c(S(=O)(=O)N2CCCCC2COCC(=O)N2CCn3c(CN4CCCCC4)ccc3C2c2ccccc2)c(C)c1 (centres unmarked) [(48), 2-((1-(mesitylsulfonyl)piperidin-2-yl)methoxy)-1-(1-phenyl-6-(piperidin-1-yl-methyl)-3,4-dihydropyrrolo[1,2-a]pyrazin-2(1H)-yl)ethanone] | 103% | 103% |
| Cc1cc(C)c(S(=O)(=O)N2CCCCC2COCC(=O)N2CCn3c(CN4CCOCC4)ccc3C2c2ccccc2)c(C)c1 (centres unmarked) [(49), 2-((1-(mesitylsulfonyl)piperidin-2-yl)methoxy)-1-(6-(morpholinomethyl)-1-phenyl-3,4-dihydropyrrolo[1,2-a]pyrazin-2(1H)-yl)ethanone] | 103% | 103% |
| CCC1c2cccn2CCN1C(=O)COCC1CCCCN1S(=O)(=O)c1c(C)cc(C)cc1C (centres unmarked) [(55), 1-(1-ethyl-3,4-dihydropyrrolo[1,2-a]pyrazin-2(1H)-yl)-2-((1-(mesitylsulfonyl)piperidin-2-yl)methoxy)ethanone] | 98% | 103% |
| CCCC1c2cccn2CCN1C(=O)COCC1CCCCN1S(=O)(=O)c1c(C)cc(C)cc1C (centres unmarked) [(56), 2-((1-(mesitylsulfonyl)piperidin-2-yl)methoxy)-1-(1-propyl-3,4-dihydropyrrolo[1,2-a]pyrazin-2(1H)-yl)ethanone] | 95% | 102% |
| Cc1cc(C)c(S(=O)(=O)N2CCCCC2COCC(=O)N2CCn3cccc3C2C(C)C)c(C)c1 (centres unmarked) [(57), 1-(1-isopropyl-3,4-dihydropyrrolo[1,2-a]pyrazin-2(1H)-yl)-2-((1-(mesitylsulfonyl)piperidin-2-yl)methoxy)ethanone] | 102% | 103% |
| CCC1c2ccc(C)n2CCN1C(=O)COCC1CCCCN1S(=O)(=O)c1c(C)cc(C)cc1C (centres unmarked) [(58), 1-(1-ethyl-6-methyl-3,4-dihydropyrrolo[1,2-a]pyrazin-2(1H)-yl)-2-((1-(mesitylsulfonyl)piperidin-2-yl)methoxy)ethanone] | 97% | 103% |
| Cc1cc(C)c(S(=O)(=O)N2CCCCC2COCC(=O)N2CCn3c(C)ccc3C2C(C)C)c(C)c1 (centres unmarked) [(59), 1-(1-isopropyl-6-methyl-3,4-dihydropyrrolo[1,2-a]pyrazin-2(1H)-yl)-2-((1-(mesitylsulfonyl)piperidin-2-yl)methoxy)ethanone] | 85% | 103% |
| COc1cc(C)c(S(=O)(=O)N2CCCCC2COCC(=O)N2CCn3c(CN4CCCC4)ccc3C2c2ccccc2)c(C)c1 (centres unmarked) [(62), 2-((1-(4-methoxy-2,6-dimethylphenylsulfonyl)piperidin-2-yl)methoxy)-1-(1-phenyl-6-(pyrrolidin-1-ylmethyl)-3,4-dihydropyrrolo[1,2-a]pyrazin-2(1H)-yl)ethanone] | 102% | 101% |
| COc1cc(C)c(S(=O)(=O)N2CCCCC2COCC(=O)N2CCn3c(CN4CCCCC4)ccc3C2c2ccccc2)c(C)c1 (centres unmarked) [(63), 2-((1-(4-methoxy-2,6-dimethylphenylsulfonyl)piperidin-2-yl)methoxy)-1-(1-phenyl-6-(piperidin-1-ylmethyl)-3,4-dihydropyrrolo[1,2-a]pyrazin-2(1H)-yl)ethanone] | 104% | 103% |
| COc1cc(C)c(S(=O)(=O)N2CCCCC2COCC(=O)N2CCn3c(CN4CCOCC4)ccc3C2c2ccccc2)c(C)c1 (centres unmarked) [(64), 2-((1-(4-methoxy-2,6-dimethylphenylsulfonyl)piperidin-2-yl)methoxy)-1-(6-(morpholinomethyl)-1-phenyl-3,4-dihydropyrrolo[1,2-a]pyrazin-2(1H)-yl)ethanone] | 103% | 102% |
| CCCCC1c2ccc(CN(C)C)n2CCN1C(=O)COCC1CCCCN1S(=O)(=O)c1c(C)cc(OC)cc1C (centres unmarked) [(67), 1-(1-butyl-6-((dimethylamino)methyl)-3,4-dihydropyrrolo[1,2-a]pyrazin-2(1H)-yl)-2-((1-(4-methoxy-2,6-dimethylphenylsulfonyl)piperidin-2-yl)methoxy)ethanone] | 102% | 100% |
| COc1cc(C)c(S(=O)(=O)N2CCCCC2COCC(=O)N2CCn3c(CN(C)C)ccc3C2c2cccs2)c(C)c1 (centres unmarked) [(68), 1-(6-((dimethylamino)methyl)-1-(thiophen-2-yl)-3,4-dihydropyrrolo[1,2-a]pyrazin-2(1H)-yl)-2-((1-(4-methoxy-2,6-dimethylphenylsulfonyl)piperidin-2-yl)methoxy)ethanone] | 102% | 103% |
| CCC1c2ccc(CN(C)C)n2CCN1C(=O)COCC1CCCCN1S(=O)(=O)c1c(C)cc(OC)cc1C (centres unmarked) [(69), 1-(6-((dimethylamino)methyl)-1-ethyl-3,4-dihydropyrrolo[1,2-a]pyrazin-2(1H)-yl)-2-((1-(4-methoxy-2,6-dimethylphenylsulfonyl)piperidin-2-yl)methoxy)ethanone] | 104% | 102% |

Other lines, results leading:

| inhibition at 10 µM [1] | inhibition at 10 µM [2] | SMILES |
| --- | --- | --- |
| 100% | 102% | Cc1cc(C)c(S(=O)(=O)N2CCCCC2COCC(=O)N2CCn3c(CN(C)C)ccc3C2Cc2ccccc2)c(C)c1 (centres unmarked) [(50), 1-(1-benzyl-6-((dimethylamino)methyl)-3,4-dihydropyrrolo[1,2-a]pyrazin-2(1H)-yl)-2-((1-(mesitylsulfonyl)piperidin-2-yl)methoxy)ethanone] |
| 101% | 101% | Cc1cc(C)c(S(=O)(=O)N2CCCCC2COCC(=O)N2CCn3c(CN(C)C)ccc3C2CCc2ccccc2)c(C)c1 (centres unmarked) [(51), 1-(6-((dimethylamino)methyl)-1-phenethyl-3,4-dihydropyrrolo[1,2-a]pyrazin-2(1H)-yl)-2-((1-(mesitylsulfonyl)piperidin-2-yl)methoxy)ethanone] |
| 103% | 100% | CCCCC1c2ccc(CN(C)C)n2CCN1C(=O)COCC1CCCCN1S(=O)(=O)c1c(C)cc(C)cc1C (centres unmarked) [(52), 1-(1-butyl-6-((dimethylamino)methyl)-3,4-dihydropyrrolo[1,2-a]pyrazin-2(1H)-yl)-2-((1-(mesitylsulfonyl)piperidin-2-yl)methoxy)ethanone] |
| 92% | 102% | Cc1cc(C)c(S(=O)(=O)N2CCCCC2COCC(=O)N2CCn3c(CN(C)C)ccc3C2c2cccs2)c(C)c1 (centres unmarked) [(53), 1-(6-((dimethylamino)methyl)-1-(thiophen-2-yl)-3,4-dihydropyrrolo[1,2-a]pyrazin-2(1H)-yl)-2-((1-(mesitylsulfonyl)piperidin-2-yl)methoxy)ethanone] |
| 102% | 100% | CCC1c2ccc(CN(C)C)n2CCN1C(=O)COCC1CCCCN1S(=O)(=O)c1c(C)cc(C)cc1C (centres unmarked) [(54), 1-(6-((dimethylamino)methyl)-1-ethyl-3,4-dihydropyrrolo[1,2-a]pyrazin-2(1H)-yl)-2-((1-(mesitylsulfonyl)piperidin-2-yl)methoxy)ethanone] |
| 87% | 102% | COc1cc(C)c(S(=O)(=O)N2CCCCC2COCC(=O)N2CCn3cccc3C2CCc2ccccc2)c(C)c1 (centres unmarked) [(60), 2-((1-(4-methoxy-2,6-dimethylphenylsulfonyl)piperidin-2-yl)methoxy)-1-(1-phenethyl-3,4-dihydropyrrolo[1,2-a]pyrazin-2(1H)-yl)ethanone] |
| 102% | 101% | COc1cc(C)c(S(=O)(=O)N2CCCCC2COCC(=O)N2CCn3c(CN(C)C)ccc3C2c2ccccc2)c(C)c1 (centres unmarked) [(61), 1-(6-((dimethylamino)methyl)-1-phenyl-3,4-dihydropyrrolo[1,2-a]pyrazin-2(1H)-yl)-2-((1-(4-methoxy-2,6-dimethylphenylsulfonyl)piperidin-2-yl)methoxy)ethanone] |
| 102% | 100% | COc1cc(C)c(S(=O)(=O)N2CCCCC2COCC(=O)N2CCn3c(CN(C)C)ccc3C2Cc2ccccc2)c(C)c1 (centres unmarked) [(65), 1-(1-benzyl-6-((dimethylamino)methyl)-3,4-dihydropyrrolo[1,2-a]pyrazin-2(1H)-yl)-2-((1-(4-methoxy-2,6-dimethylphenylsulfonyl)piperidin-2-yl)methoxy)ethanone] |
| 102% | 101% | COc1cc(C)c(S(=O)(=O)N2CCCCC2COCC(=O)N2CCn3c(CN(C)C)ccc3C2CCc2ccccc2)c(C)c1 (centres unmarked) [(66), 1-(6-((dimethylamino)methyl)-1-phenethyl-3,4-dihydropyrrolo[1,2-a]pyrazin-2(1H)-yl)-2-((1-(4-methoxy-2,6-dimethylphenylsulfonyl)piperidin-2-yl)methoxy)ethanone] |
